Laboratory results taken from PMC5653977 (EMBO Molecular Medicine, 2017).
Counter-ions that a name gives are not always drawn.

What follows are compounds tested on NRG1-ERBB4 signaling (assay: Nrg1-ERBB4-PIK3R1 split TEV co-culture compound screen of the NIH Clinical Collection). Conditions: NIH Clinical Collection NCC-003 raw data; compounds ranked by Z-score; 'flagged' given instead of a Z-score.
Type: cell-based, human
In the case of `COc1ccc(/C=C/C(=O)Nc2ccccc2C(=O)O)cc1OC`, the Z-SCORE is reported as -1.17.
`Cl.O=C1[C@H]2CCCC[C@H]2C(=O)N1CCCCN1CCN(c2nsc3ccccc23)CC1` [PEROSPIRONE HCl] showed a Z-SCORE of -1.42.
With `O=c1c(-c2ccccc2)c1-c1ccccc1` [diphenylcyclopropenone] the Z-SCORE was “flagged”.
`Clc1ccc(CO/N=C(\Cn2ccnc2)c2ccc(Cl)cc2Cl)c(Cl)c1` [OXICONAZOLE NITRATE] was tested, and the Z-SCORE was -1.71.
For `C=CCc1ccc(O)c(-c2ccc(O)c(CC=C)c2)c1` [HONOKIOL], the Z-SCORE was “flagged”.
With `CC(C)C[C@H](NC(=O)[C@@H](O)[C@H](N)Cc1ccccc1)C(=O)O` [BESTATIN] the Z-SCORE was -1.11.
With `O=C1Nc2ccc(Cl)cc2[C@@](C#CC2CC2)(C(F)(F)F)O1` [EFAVIRENZ] the Z-SCORE was “flagged”.

Same assay, conditions: compound screen of the NIH Clinical Collection, sheet raw data NCC-003; compounds ranked by Z-score
`CC#C[C@]1(O)CC[C@H]2[C@@H]3CCC4=CC(=O)CCC4=C3[C@@H](c3ccc(N(C)C)cc3)C[C@@]21C` [MIFEPRISTONE] showed a Z-SCORE of 0.02.
Work on `C[C@]12CC[C@@H]3c4ccc(OS(=O)(=O)[O-])cc4CC[C@H]3[C@@H]1CCC2=O.[Na+]` yielded a Z-SCORE of 0.37.
In the case of `CC(C)(C)NC(=O)[C@H]1CC[C@H]2[C@@H]3CC[C@H]4NC(=O)C=C[C@]4(C)[C@H]3CC[C@]12C` [FINASTERIDE], the Z-SCORE is reported as -0.75.
`Cc1nc2ccccn2c(=O)c1CCN1CCC(C(=O)c2ccc(F)cc2)CC1` [PIRENPERONE] gave a Z-SCORE of 1.82.
Compound `CC(CCCCC(=O)Nc1ccc(C(F)(F)F)cc1)NCCc1cnc[nH]1` (stereo not shown) [HTMT] has a Z-SCORE of -0.18.
In the case of `CNCCCC12CCC(c3ccccc31)c1ccccc12.Cl` [Maprotilline HCl], the Z-SCORE is reported as 1.18.
For `CN1CCN(C2=Nc3cc(F)ccc3Cc3ccccc32)CC1` [Fluperlapine], the Z-SCORE was -0.5.
Work on `O=[N+]([O-])c1cccc2cn[nH]c12` [7-NITROINDAZOLE] yielded a Z-SCORE of 0.29.
`CCC1=C(C)CN(C(=O)NCCc2ccc(S(=O)(=O)NC(=O)N[C@H]3CC[C@H](C)CC3)cc2)C1=O` [GLIMEPIRIDE] gave a Z-SCORE of 0.02.
`Cl.NC1CCN(c2cccc(Cl)n2)CC1` [SR 57,227A] was tested, and the Z-SCORE was -0.24.
With `Cc1ccc(-c2nc3ccc(C)cn3c2CC(=O)N(C)C)cc1` [ZOLPIDEM TARTRATE] the Z-SCORE was -0.69.
In the case of `CCOC(=O)O[C@]1(C(=O)OCCl)CC[C@H]2[C@@H]3CCC4=CC(=O)C=C[C@]4(C)[C@H]3[C@@H](O)C[C@@]21C` [LOTEPREDNOL ETABONATE], the Z-SCORE is reported as 0.32.
`CC(C)OC(=O)CCC/C=C\C[C@@H]1[C@@H](CC[C@@H](O)CCc2ccccc2)[C@H](O)C[C@@H]1O` [LATANOPROST] showed a Z-SCORE of -0.3.
With `COC(=O)N1CCN(C(=O)Cc2ccc(Cl)c(Cl)c2)C(CN2CCCC2)C1` (stereo not shown) [GR 89696] the Z-SCORE was 1.46.
In the case of `c1ccc2c(c1)Nc1ccccc1S2` [PHENOTHIAZINE], the Z-SCORE is reported as -0.03.
For `CN(CCOc1ccc(CC2SC(=O)NC2=O)cc1)c1ccccn1` (stereo not shown) [ROSIGLITAZONE MALEATE], the Z-SCORE was -0.83.
With `Cc1c(C(=O)NN2CCCCC2)nn(-c2ccc(Cl)cc2Cl)c1-c1ccc(I)cc1` [AM-251] the Z-SCORE was -0.56.
For `CCN1CCN(c2cc3c(cc2F)c(=O)c(C(=O)O)cn3C2CC2)CC1` [ENROFLOXACIN], the Z-SCORE was 0.83.
`CC[C@@H]1C=CC=CC[C@H](C)[C@@H](O)[C@@H](C)C(=O)[C@H](C)[C@@H](O)[C@H](C)C(=O)[C@H](C)[C@@H](O)[C@H](C)C=CC(=O)O[C@H]2[C@@H](C)[C@@H](CC1)O[C@@]1(CC[C@@H](C)[C@@H](C[C@H](C)O)O1)[C@@H]2C` [[…]] showed a Z-SCORE of -0.54.
`CC(C)(C)NCC(O)c1ccc(O)c(CO)c1.CC(C)(C)NCC(O)c1ccc(O)c(CO)c1.O=S(=O)(O)O` (stereo not shown) [SALBUTAMOL SULFATE] gave a Z-SCORE of -0.61.
Work on `C[C@H]1C[C@H]2[C@@H]3CCC4=CC(=O)C=C[C@]4(C)[C@@]3(Cl)[C@@H](O)C[C@]2(C)[C@@]1(O)C(=O)CO` [Beclomethasone] yielded a Z-SCORE of -0.67.
Compound `Cc1nc2ccc(CN(C)c3ccc(C(=O)N[C@@H](CCC(=O)O)C(=O)O)s3)cc2c(=O)[nH]1` [RALTITREXED] has a Z-SCORE of -0.52.
In the case of `COCCCC/C(=N\OCCN)c1ccc(C(F)(F)F)cc1` [Fluvoxamine], the Z-SCORE is reported as -0.2.
In the case of `C[C@@H]1C[C@H]2[C@@H]3C[C@H](F)C4=CC(=O)C(Cl)=C[C@]4(C)[C@@]3(F)[C@@H](O)C[C@]2(C)[C@@]1(O)C(=O)CO.O` [HALOMETASONE MONOHYDRATE], the Z-SCORE is reported as -0.25.
Compound `CC(N/C(=N\C#N)Nc1ccncc1)C(C)(C)C` (stereo not shown) [Pinacidil monohydrate] has a Z-SCORE of 0.85.

Same assay, conditions: compounds at 10 μM, 24 h; PC12 split TEV assay cells co-cultured with Nrg1-expressing PC12 cells; analysed with cellHTS2
In the case of `CN1CCN(C2=Nc3cc(Cl)ccc3Nc3ccccc32)CC1` [Clozapine, reference compound], the Z-SCORE is reported as -0.31.
For `CS(=O)(=O)OCCCCOS(C)(=O)=O` [Busulfan, reference compound], the Z-SCORE was 0.13.
For `Oc1cc(Cl)ccc1Oc1ccc(Cl)cc1Cl` [Triclosan, reference compound], the Z-SCORE was “flagged”.
Compound `C[C@H](CCC(=O)O)[C@H]1CC[C@H]2[C@@H]3[C@@H](O)C[C@@H]4C[C@H](O)CC[C@]4(C)[C@H]3CC[C@]12C` [URSODEOXYCHOLIC ACID, reference compound] has a Z-SCORE of -1.5.
With `C[C@H]1C[C@@H]2[C@H]([C@@H](O)C[C@@]3(C)[C@H]2CC[C@]3(O)C(=O)CO)[C@@]2(C)C=CC(=O)C=C12` [METHYLPREDNISOLONE, reference compound] the Z-SCORE was 0.65.
`CC(C)NCC(O)c1ccc(O)c(O)c1` (stereo not shown) [Isuprel, reference compound] was tested, and the Z-SCORE was -0.93.
Work on `Cc1cn([C@H]2C[C@H](N=[N+]=[N-])[C@@H](CO)O2)c(=O)[nH]c1=O` [zidovudine, reference compound] yielded a Z-SCORE of 0.17.
With `Cc1cccc(C)c1OCC(C)N` (stereo not shown) [Mexitil, reference compound] the Z-SCORE was 1.1.
Compound `CCCC1O[C@@H]2C[C@H]3[C@@H]4CCC5=CC(=O)C=C[C@]5(C)[C@H]4[C@@H](O)C[C@]3(C)[C@]2(C(=O)CO)O1` (stereo partly shown) [BUDESONIDE, reference compound] has a Z-SCORE of -0.46.
Work on `OC(CCN1CCCCC1)(c1ccccc1)C1CCCCC1` (stereo not shown) [Artane, reference compound] yielded a Z-SCORE of -0.35.
In the case of `COc1ccccc1OCC(O)COC(N)=O` (stereo not shown) [Methocarbamol, reference compound], the Z-SCORE is reported as 0.65.
For `CCC1(c2ccccc2)C(=O)NCNC1=O` [Primidone, reference compound], the Z-SCORE was 1.6.
`CN(C)[C@@H]1C(O)=C(C(N)=O)C(=O)[C@@]2(O)C(O)=C3C(=O)c4c(O)cccc4[C@@](C)(O)[C@H]3C[C@@H]12` [TETRACYCLINE, reference compound] showed a Z-SCORE of 0.95.
`CCCNC(=O)NS(=O)(=O)c1ccc(Cl)cc1` [Chlorpropamide, reference compound] was tested, and the Z-SCORE was -0.07.
Work on `C=CCN1CC[C@]23c4c5ccc(O)c4O[C@H]2C(=O)CC[C@@]3(O)[C@H]1C5` [NALOXONE HYDROCHLORIDE, reference compound] yielded a Z-SCORE of -0.39.
In the case of `S=c1[nH]cnc2nc[nH]c12` [Mercaptopurine, reference compound], the Z-SCORE is reported as 0.
With `O=S(=O)(O)CCS` [Mesna, reference compound] the Z-SCORE was 0.04.
With `Cc1cnc(NC(=O)C2=C(O)c3ccccc3S(=O)(=O)N2C)s1` [Meloxicam, reference compound] the Z-SCORE was 0.24.
`CCC(=O)OCC(=O)[C@@]1(OC(=O)CC)[C@@H](C)C[C@H]2[C@@H]3CCC4=CC(=O)C=C[C@]4(C)[C@@]3(Cl)[C@@H](O)C[C@@]21C` [BECLOMETHASONE DIPROPIONATE, reference compound] gave a Z-SCORE of 0.81.
Compound `NCC(=O)CCC(=O)O` [Aminolevulinic Acid, reference compound] has a Z-SCORE of -0.04.
